Experimental findings from ChEMBL document CHEMBL1201862, “PubChem BioAssay data set” (2004) are described below.

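Briefly, cells in 96-well plates were exposed to five compound concentrations for 48 h, and endpoints were estimated by linear interpolation. GI50: concentration for 50% inhibition of growth.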 Activity calls are given as the source filed them. Cut-off read from the data, not from the text of the source: active = GI50 up to about 1.1 µM and inactive = higher.

Test systems include IGROV-1; K562; SNB-75; NCI-H522; HOP-62; MDA-MB-435; MOLT-4; LOX IMVI; SF-295; SNB-19; SK-OV-3; HCT-15; A498; OVCAR-4; HT-29; RXF 393; SN12C; ACHN; HCC 2998; HL-60.
Holding throughout (assay): NCI anticancer screen, dose series, 48 h

On to `Cc1ccc(Nc2nnc(-c3ccc4c(c3)OCO4)o2)c(C)c1`, for which the GI50 is > 100 µM (inactive) with IGROV-1; > 100 µM (inactive) in the experiment on K562; > 100 µM (inactive) in the experiment with SNB-75; 30.5 µM (inactive) in the experiment with NCI-H522; > 100 µM (inactive) with HOP-62; > 100 µM (inactive) in the experiment on MDA-MB-435. Moreover, the GI50 in the experiment with MOLT-4 is 1.71 µM (inactive); in the experiment with LOX IMVI it was > 100 µM (inactive); in the experiment with SF-295 it was > 100 µM (inactive); with SNB-19 it was 40.2 µM (inactive); in the experiment on SK-OV-3, > 100 µM (inactive); in the experiment with HCT-15, more than 100 µM. Further, the GI50 with A498 was 39.6 µM (inactive); with OVCAR-4, > 100 µM (inactive); with HT-29 it was > 100 µM (inactive); in the experiment with RXF 393, > 100 µM (inactive); in the experiment with SN12C it was > 100 µM (inactive); in the experiment on ACHN it was > 100 µM (inactive). Moreover, the GI50 in the experiment on HCC 2998 was > 100 µM (inactive).
Consider `CC1(C)OC[C@@H](O)[C@H](Br)CO1`, for which the GI50 was 79.8 µM (inactive) in the experiment with K562; > 100 µM (inactive) in the experiment on SNB-75; > 100 µM (inactive) with HL-60; > 100 µM (inactive) with HOP-62; > 100 µM (inactive) in the experiment on MDA-MB-435; 65.8 µM (inactive) with MOLT-4. Further, the GI50 is > 100 µM (inactive) in the experiment with LOX IMVI; > 100 µM (inactive) in the experiment with SF-295; > 100 µM (inactive) with SNB-19; > 100 µM (inactive) in the experiment with SK-OV-3; more than 100 µM with HCT-15; > 100 µM (inactive) with A498. Moreover, the GI50 with OVCAR-4, in the experiment on HT-29, in the experiment on RXF 393, with SN12C, in the experiment with ACHN and in the experiment with HCC 2998 was > 100 µM (inactive) throughout.
With `Nc1nc(Cl)c(N)c(NCC2(CO)CCC(OCc3ccccc3)C2)n1` (stereo not given), the GI50 is > 100 µM (inactive) in the experiment on IGROV-1; 1.33 µM (inactive) with K562; > 100 µM (inactive) in the experiment with SNB-75; > 100 µM (inactive) in the experiment with NCI-H522; > 100 µM (inactive) with HOP-62; 95.9 µM (inactive) in the experiment on MDA-MB-435. The GI50 is 31.7 µM (inactive) in the experiment on MOLT-4; 18.5 µM (inactive) with LOX IMVI; 4.9 µM (inactive) in the experiment with SF-295; > 100 µM (inactive) with SNB-19; > 100 µM (inactive) in the experiment with SK-OV-3; 61.9 µM in the experiment with HCT-15. The GI50 was 0.982 µM (active) with A498; 43.4 µM (inactive) in the experiment on OVCAR-4; > 100 µM (inactive) with HT-29; 8.85 µM (inactive) in the experiment with RXF 393; > 100 µM (inactive) in the experiment with SN12C; > 100 µM (inactive) in the experiment with ACHN. For the same compound, the GI50 with HCC 2998 was > 100 µM (inactive).
Turning to `Cc1[nH]c2c(c1Cc1ccccc1)C1=NC=C(O)NN1C=N2`, the GI50 with IGROV-1 is 10 µM (inactive); in the experiment with SNB-75 it was 10.3 µM (inactive); in the experiment on HL-60 it was > 100 µM (inactive); in the experiment on NCI-H522, 43.7 µM (inactive); with HOP-62, > 100 µM (inactive); in the experiment with MDA-MB-435, > 100 µM (inactive). The GI50 with MOLT-4 was 29 µM (inactive); in the experiment with SF-295, 62.4 µM (inactive); in the experiment on SNB-19, > 100 µM (inactive); in the experiment with SK-OV-3, > 100 µM (inactive); in the experiment on HCT-15 it was 45.3 µM; in the experiment with A498, > 100 µM (inactive). For the same compound, the GI50 in the experiment on OVCAR-4 is > 100 µM (inactive); with HT-29, 80 µM (inactive); in the experiment with RXF 393 it was 16.6 µM (inactive); in the experiment with SN12C, > 100 µM (inactive); with ACHN, 44.3 µM (inactive); in the experiment on HCC 2998 it was 53.8 µM (inactive).
For the compound `O=C1NC(=O)/C(=C/c2ccc(S(=O)(=O)N/N=C\C(O)C(O)C(O)C(O)CO)cc2)N1` (stereo not given), the GI50 in the experiment on IGROV-1, in the experiment on K562, in the experiment with SNB-75, in the experiment with HL-60, with HOP-62 and with MDA-MB-435 was > 100 µM (inactive) in each case. Besides, the GI50 with MOLT-4 was > 100 µM (inactive); in the experiment on LOX IMVI, > 100 µM (inactive); in the experiment on SF-295 it was > 100 µM (inactive); in the experiment on SNB-19, > 100 µM (inactive); in the experiment with SK-OV-3, > 100 µM (inactive); in the experiment on HCT-15, more than 100 µM. Moreover, the GI50 in the experiment with A498, in the experiment with OVCAR-4, in the experiment with HT-29, in the experiment with RXF 393, in the experiment with SN12C and in the experiment on ACHN was > 100 µM (inactive) in each case. For the same compound, the GI50 with HCC 2998 was > 100 µM (inactive).
In the case of `N#Cc1ccc(-c2nc3c(N)nc(-c4ccccc4)nc3o2)cc1`, the GI50 was > 100 µM (inactive) with IGROV-1; > 100 µM (inactive) in the experiment on K562; 72.9 µM (inactive) with SNB-75; > 100 µM (inactive) in the experiment with HL-60; 25 µM (inactive) in the experiment with NCI-H522; 19.7 µM (inactive) in the experiment on HOP-62. Also, the GI50 with MDA-MB-435 is > 100 µM (inactive); with MOLT-4, > 100 µM (inactive); in the experiment with LOX IMVI, > 100 µM (inactive); in the experiment on SF-295, 51.1 µM (inactive); in the experiment with SNB-19, 55.1 µM (inactive); in the experiment with HCT-15, more than 100 µM. Further, the GI50 is > 100 µM (inactive) in the experiment on A498; 17.3 µM (inactive) in the experiment with OVCAR-4; > 100 µM (inactive) with HT-29; 23.8 µM (inactive) in the experiment with RXF 393; > 100 µM (inactive) with SN12C; 26.9 µM (inactive) in the experiment with ACHN. Further, the GI50 in the experiment on HCC 2998 is > 100 µM (inactive).
For the compound `CC(C)C1=CC(=O)[C@@](C)(C2[C@H](O)C[C@@]3(C)[C@@H]4CC=C5[C@@H](CC[C@@H](OC6OCC(O)C(O)C6OC6OC(C)C(O)C(O)C6O)C5(C)C)[C@]4(C)C(=O)C[C@]23C)O1` (stereo not given in full), the GI50 with IGROV-1, with K562, with SNB-75, in the experiment with NCI-H522, with HOP-62 and in the experiment with MDA-MB-435 was > 100 µM (inactive) in each case. The GI50 was > 100 µM (inactive) with MOLT-4; 59 µM (inactive) with SF-295; > 100 µM (inactive) in the experiment on SNB-19; > 100 µM (inactive) with SK-OV-3; more than 100 µM in the experiment on HCT-15; > 100 µM (inactive) with A498. In addition, the GI50 in the experiment on OVCAR-4, in the experiment with HT-29, with RXF 393, with SN12C, in the experiment on ACHN and in the experiment on HCC 2998 was > 100 µM (inactive) each time.
For the compound `C=C(Cl)C(=C)CCC(Cl)C(C)C` (stereo not given), the GI50 with IGROV-1, with K562, in the experiment on HL-60, in the experiment on NCI-H522, with HOP-62 and with MDA-MB-435 was > 100 µM (inactive) throughout. The GI50 with MOLT-4, in the experiment on LOX IMVI, in the experiment on SF-295, in the experiment on SNB-19, with SK-OV-3 and in the experiment on A498 was > 100 µM (inactive) throughout. Moreover, the GI50 in the experiment with OVCAR-4, with HT-29, with RXF 393, in the experiment with SN12C, in the experiment on ACHN and with HCC 2998 was > 100 µM (inactive) in each case.
On to `COc1cc(CNNC(N)=S)cc(OC)c1OC`, for which the GI50 in the experiment with IGROV-1 was > 100 µM (inactive); in the experiment on K562 it was > 100 µM (inactive); with SNB-75 it was > 100 µM (inactive); in the experiment with HL-60, > 100 µM (inactive); in the experiment with NCI-H522, > 100 µM (inactive); with HOP-62, 90.6 µM (inactive). The GI50 with MDA-MB-435 was > 100 µM (inactive); in the experiment on MOLT-4 it was > 100 µM (inactive); in the experiment with LOX IMVI, > 100 µM (inactive); in the experiment with SF-295, > 100 µM (inactive); with SNB-19, > 100 µM (inactive); in the experiment on HCT-15, more than 100 µM. Further, the GI50 with A498, with HT-29, with RXF 393, in the experiment with SN12C, with ACHN and with HCC 2998 was > 100 µM (inactive) throughout.
For the compound `COC(=O)[C@]12CC[C@H]3CN(C(=O)OCc4ccccc4)[C@H]([C@H]31)[C@H](c1ccco1)N2`, the GI50 with IGROV-1 is 60.4 µM (inactive); in the experiment on K562 it was 30.4 µM (inactive); with HL-60, 28.8 µM (inactive); with NCI-H522, 14.1 µM (inactive); in the experiment on HOP-62, 90.2 µM (inactive); in the experiment on MDA-MB-435, 19.4 µM (inactive). For the same compound, the GI50 in the experiment on MOLT-4 is 19.8 µM (inactive); in the experiment with LOX IMVI, 53.2 µM (inactive); in the experiment with SF-295 it was 32.1 µM (inactive); with SNB-19, > 100 µM (inactive); in the experiment on SK-OV-3, > 100 µM (inactive); in the experiment with HCT-15, 23.9 µM. The GI50 in the experiment on A498 is 0.0226 µM (active); in the experiment on OVCAR-4 it was 0.61 µM (active); in the experiment with HT-29, 81.3 µM (inactive); in the experiment on RXF 393 it was > 100 µM (inactive); in the experiment with SN12C, 46.2 µM (inactive); in the experiment with ACHN, 43.5 µM (inactive). For the same compound, the GI50 in the experiment on HCC 2998 is > 100 µM (inactive).
For the compound `COc1ccccc1-c1nc(O)c2ccccc2n1`, the GI50 in the experiment on IGROV-1, in the experiment on SNB-75, with HOP-62, with MDA-MB-435, with MOLT-4 and with SF-295 was > 100 µM (inactive) in each case. Moreover, the GI50 was > 100 µM (inactive) with SNB-19; > 100 µM (inactive) with SK-OV-3; more than 100 µM in the experiment on HCT-15; > 100 µM (inactive) with A498; > 100 µM (inactive) in the experiment on OVCAR-4; > 100 µM (inactive) in the experiment on RXF 393. The GI50 with SN12C is 56 µM (inactive); in the experiment on ACHN it was > 100 µM (inactive); in the experiment on HCC 2998, > 100 µM (inactive).
